Results from US20240343761A1, “APELINERGIC MACROCYCLES AND USES THEREOF” (priority 2021, published 2024).
Read-outs that look alike come from different tables or passages of the source. Values belong to the compound of their own block, whether it stands above or below them. Bridge positions count the residues as written; N and C are the ends. Square brackets hold non-standard residues; d marks the D form. Peptide text beside a SMILES is read from it. Phe(4-Br) = N[C@@H](Cc1ccc(Br)cc1)C(=O)O; pGlu = O=C1CC[C@@H](C(=O)O)N1; Nle = CCCC[C@H](N)C(=O)O

Legend:
[1] = Rat plasma stability (half-life in vitro); type: in vitro ADME; conditions: male, Sprague-Dawley, rat, plasma; for half-life at 0.182 mM: Table I, 37° C., up to 24 h
Description: Plasma was obtained from male Sprague-Dawley rats by collecting blood in heparin tube and centrifugating at 13,000 rpm to remove blood cells. The isolated plasma was stored at −80° C. and thawed right before the test. In 96-well plate, 6 μL of peptide solution at 1 mM was incubated with 27 μL of plasma at 37° C. in an oven equipped with orbital shaker. Tightly fitted caps were used to seal the wells to avoid water evaporation during incubation. […] A 96-well UPLC plate was put at the bottom to collect the samples. Both plates were centrifuged at 500 g for 10 min at 4° C. to accelerate the filtration. […] The quantity of remaining peptide was plotted into an exponential one-phase decay curve using GraphPad Prism 8 which allowed to calculate peptide half-life. The results were presented as mean±SEM of at least 3 independent experiments, each done in simplicate.
The percentage of remaining analogue was calculated by doing the ratio between AU of compound and AUC of internal standard. Half-lives were extrapolated from curves.

human APJ (hAPJ) = target: T1, human APJ (hAPJ) (Homo sapiens, UniProt P35414); experiment: Competitive radioligand binding ([125I][Nle75,Tyr77][Pyr1]-Ape13) on membranes of HEK293 cells stably expressing human APJ
T1 construct: expressed in transfected cells; cell membranes
T1 sequence (P35414 1-380): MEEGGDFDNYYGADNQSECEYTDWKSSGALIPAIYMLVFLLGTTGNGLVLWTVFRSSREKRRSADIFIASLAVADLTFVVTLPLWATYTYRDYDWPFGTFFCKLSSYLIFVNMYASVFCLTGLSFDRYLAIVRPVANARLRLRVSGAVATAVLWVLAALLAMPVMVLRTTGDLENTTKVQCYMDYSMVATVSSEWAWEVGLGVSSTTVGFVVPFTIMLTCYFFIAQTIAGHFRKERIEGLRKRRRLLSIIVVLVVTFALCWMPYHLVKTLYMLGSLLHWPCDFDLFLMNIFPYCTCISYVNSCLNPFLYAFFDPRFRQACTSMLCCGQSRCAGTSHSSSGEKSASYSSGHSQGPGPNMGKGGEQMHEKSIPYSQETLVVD
Description: HEK293 cells stably expressing YFP-tagged human APJ were cultured in DMEM medium supplemented with 10% FBS, at 37° C. under a humid atmosphere maintaining 5% CO2. Antibiotic G418 (400 μg/mL) was added to maintain a selection pressure for APJ-expressing cells while penicillin/streptomycin (0.1%) were used to prevent bacterial contamination.
Binding experiments were performed on cell membranes of HEK293 stably expressing the YFP-tagged human APJ receptor. Cells were frozen at −80° C. for storage and quickly thawed right before the experiments (1 min at 37° C.). […] The precipitate (cell membranes) was suspended in binding buffer (50 mM Tris-HCl, 0.2% BSA, pH 7.4). Binding assays were run in 96-well plates. […] (820 Ci/mmol)^3 and test ligand with a range of concentrations from 10^−1 to 10^−11 M in a total volume of 200 μL for 1 h at room temperature.
The incubation mixtures were filtered through a glass fiber filter (Millipore, pre-absorbed of PEI 0.5% for 2 h at 4° C.) to remove unbound ligands, and the filter membranes were washed three times with 170 μL cold binding buffer (4° C.). The γ emission was measured using a 1470 Wizard γ-counter from PerkinElmer (Waltham, USA) (80% efficiency).

hAPJ receptor [2] = target: T2, hAPJ receptor (Homo sapiens, UniProt P35414); experiment: BRET-based β-arrestin2 recruitment assay in HEK293 cells; type: cell-based
T2 construct: expressed in transfected cells; host or cells: HEK293, transient transfection with PEI
T2 sequence (P35414 1-380): T1 sequence (P35414 1-380)
Description: (§1) HEK293 cells were cultivated in high glucose DMEM medium having 10% FBS, 100 U/mL penicillin/streptomycin, 2 mM glutamine, and 20 mM HEPES at 37° C. in T175 flasks under humidified chamber at 5% CO2. […] Cells were then washed with phosphate-buffered saline (PBS) and 90 μL Hanks' balanced salt solution was added in each well. Then, cells were stimulated with analogs at concentrations ranging from 10^−5 M to 10^−11 M for 5 min at 37° C. (Gαi1) or for 30 min at room temperature (β-arrestin2). After stimulation, 5 μM of coelanterazine 400A was added to each well and the plate was read using the BRET^2 filter set of a GeniosPro plate reader (Tecan, Austria). The BRET ratio was determined as GFP10em/RlucIIem. Data were plotted and EC50 values were determined using GraphPad Prism 8. Each data point represents the mean±SEM of at least three different experiments each done in triplicate.

hAPJ receptor [3] = target: T2, hAPJ receptor; experiment: BRET-based Gαi1 activation assay in HEK293 cells; type: cell-based
Description: as §1

Structure (SMILES): CC(C)C[C@@H]1NC(=O)[C@H](CCCNC(=N)N)NC(=O)[C@@H](N)CC=CC[C@@H](C(=O)N[C@@H](CCCCN)C(=O)NCC(=O)N2CCC[C@H]2C(=O)N[C@@H](Cc2ccc3ccccc3c2)C(=O)O)NC(=O)[C@H](CO)NC1=O [Compound 36, NH2-c[X-R-L-S-X]c-K-G-P-2Nal]
half-life at 0.182 mM ([1]; rat plasma): 0.4 ± 0.1 h

Structure (SMILES): CC(C)C[C@@H]1NC(=O)[C@H](CCCNC(=N)N)NC(=O)[C@@H](N)CC=CC[C@@H](C(=O)N[C@@H](CCCCN)C(=O)NCC(=O)N2CCC[C@H]2C(=O)N[C@@H](Cc2ccc(OCc3ccccc3)cc2)C(=O)O)NC(=O)[C@H](CO)NC1=O [Compound 37, NH2-c[X-R-L-S-X]c-K-G-P-TyrOBn]
half-life at 0.182 mM ([1]; rat plasma): 0.5 ± 0.1 h

Structure (SMILES): CC(C)C[C@@H]1NC(=O)[C@H](CCCNC(=N)N)NC(=O)[C@@H](N)CC=CC[C@@H](C(=O)N[C@@H](CCCCN)C(=O)NCC(=O)N2CCC[C@H]2C(=O)N[C@@H](Cc2ccc(OCc3ccccc3)c(C3CCCC3)c2)C(=O)O)NC(=O)[C@H](CO)NC1=O [Compound 38, NH2-c[X-R-L-S-X]c-K-G-P-cypTyr(OBn)]
half-life at 0.182 mM ([1]; rat plasma): 11.3 ± 1 h

Structure (SMILES): CC(=O)N[C@@H](CCCCN)C(=O)N[C@@H](Cc1ccccc1)C(=O)N[C@@H](CCCNC(=N)N)C(=O)N[C@@H](CCCNC(=N)N)C(=O)N[C@@H](CCC(N)=O)C(=O)N[C@@H](CCCNC(=N)N)C(=O)N1CCC[C@H]1C(=O)N[C@@H](CCCNC(=N)N)C(=O)N[C@@H](CC(C)C)C(=O)N[C@H]1CCC(=O)NCCCC[C@@H](C(=O)N2CCC[C@H]2C(=O)N[C@@H](C)C(=O)N2CCC[C@H]2C(=O)N[C@@H](Cc2ccccc2)C(=O)O)NC(=O)[C@H](C)NC(=O)[C@H](Cc2c[nH]cn2)NC1=O [Compound 62, Ac-K-F-R-R-Q-R-P-R-L-[E-H-A-K]-P-A-P-F] (Ac-KFRRQRPRLEHAKPAPF-OH; lactam 10-13)
Ki (human APJ (hAPJ); Ki binding): 11 ± 7 nM | EC50 (hAPJ receptor [2]): 1260 nM

Structure (SMILES): CCCC[C@H](NC(=O)[C@@H]1CCC(=O)NCCCC[C@H](N)C(=O)N[C@@H](CCCNC(=N)N)C(=O)N[C@@H](CCCNC(=N)N)C(=O)N1)C(=O)N[C@H]1CSSC[C@@H](C(=O)N[C@@H](CCCNC(=N)N)C(=O)N[C@H](C(=O)N2CCC[C@H]2C(=O)N[C@@H](Cc2ccccc2)C(=O)N2CCC[C@H]2C(=O)O)C(C)C)NC(=O)[C@H](Cc2c[nH]cn2)NC(=O)[C@H](CC(C)C)NC1=O [Compound 79, c[K-R-R-E]-Nle-c[C-L-H-C]-R-V-P-F-P] (H-KRRE[Nle]CLHCRVPFP-OH; lactam 1-4; disulfide 6-9)
EC50 (hAPJ receptor [3]): 4 ± 0.8 nM | EC50 (hAPJ receptor [2]): 51 ± 3 nM | half-life at […] ([1]; Table III, rat plasma, read-out: Half-life in vitro (converted)): > 17 h

Structure (SMILES): CC(C)C[C@@H]1NC(=O)[C@@H]2CCCN2C(=O)[C@@H](NC(=O)[C@H](CO)NC(=O)[C@H](CCCNC(=N)N)NC(=O)[C@H](CCCNC(=N)N)NC(=O)[C@@H]2CCC(=O)N2)CCC(=O)NCCCC[C@@H](C(=O)N[C@@H](CCCNC(=N)N)C(=O)N[C@H](C(=O)N2CCC[C@H]2C(=O)N[C@@H](Cc2ccc(Br)cc2)C(=O)N2CCC[C@H]2C(=O)O)C(C)C)NC(=O)[C@H](Cc2c[nH]cn2)NC1=O [Compound 92, Pyr-R-R-S-[E-P-L-H-K]-R-V-P-4BrF-P] ([pGlu]RRSEPLHKRVP[Phe(4-Br)]P-OH; lactam 5-9)
Ki (human APJ (hAPJ); Binding Ki): 15 ± 2 nM | EC50 (hAPJ receptor [3]): 16 ± 3 nM | EC50 (hAPJ receptor [2]): 439 ± 91 nM

Emax (hAPJ receptor [3]; HEK293, Table V, read-out: Gαi1 Emax): 101% | Emax (hAPJ receptor [2]; HEK293, Table V, read-out: ß-arr2 Emax): 98% | half-life at […] ([1]; t1/2 in rat plasma): 2 to 5 h
Structure (SMILES): CCCC[C@H](NC(=O)[C@@H]1CCCN1C(=O)CNC(=O)[C@H](CCCCN)NC(=O)[C@@H]1CC=CC[C@H](NC(=O)[C@H](CCCNC(=N)N)NC(=O)[C@@H]2CCC(=O)N2)C(=O)N[C@@H](CCCNC(=N)N)C(=O)N[C@@H](CC(C)C)C(=O)N[C@@H](CO)C(=O)N1)C(=O)N1CCC[C@H]1C(=O)N[C@@H](Cc1ccccc1)C(=O)O [Compound 97, Pyr-R-c[X-R-L-S-X]c-K-G-P-Nle-P-F, reference compound]
